The values that follow come from ChEMBL document CHEMBL1201862, “PubChem BioAssay data set” (2004).

Some test systems named below: EKVX; NCI-H23; NCI/ADR-RES; MDA-N; SN12C; HOP-62; SF-539; SR; SW-620; K562; SK-OV-3; Malme-3M; A549; SK-MEL-28; HCC 2998; UACC-257; LOX IMVI; UACC-62; OVCAR-8; OVCAR-4.
Holding throughout (experiment): NCI-60 cell line screen, 48 h

Each structure is given as a SMILES string.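 Each compound was tested at five concentrations against cells in 96-well plates for 48 hours. At the GI50, growth is halved.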 Active and inactive are the calls of the source. Rule as the data show it: active = GI50 up to about 1.1 µM and inactive = higher.

Consider `COc1ccc2c(c1)CC[C@@H]1C2CC[C@]2(C)C(=C=CP(=O)(O)O)CCC12` (stereo partly drawn), for which the GI50 in the assay with EKVX, in the assay with NCI-H23, with NCI/ADR-RES, with MDA-N, in the assay with SN12C and in the assay on HOP-62 was > 100 µM (inactive) in each case. For the same compound, the GI50 is > 100 µM (inactive) with SF-539; 99.5 µM (inactive) in the assay with SR; > 100 µM (inactive) in the assay on SW-620; > 100 µM (inactive) with K562; > 100 µM (inactive) in the assay with SK-OV-3; > 100 µM (inactive) in the assay on Malme-3M. In addition, the GI50 in the assay on A549, with SK-MEL-28, with HCC 2998, with UACC-257, in the assay on LOX IMVI and in the assay on UACC-62 was > 100 µM (inactive) in each case. For the same compound, the GI50 in the assay with OVCAR-8 and in the assay with OVCAR-4 was > 100 µM (inactive) each time.

`CN(/N=C/C=N/N(C)C1=NCCCCN1)C1=NCCCCN1`: the GI50 in the assay with EKVX, with NCI-H23, in the assay on NCI/ADR-RES, with MDA-N, in the assay on SN12C and with HOP-62 was > 100 µM (inactive) each time. Further, the GI50 in the assay with SF-539, in the assay with SR, with SW-620, with K562, with SK-OV-3 and with Malme-3M was > 100 µM (inactive) in each case. In addition, the GI50 in the assay on A549, in the assay on SK-MEL-28, in the assay with HCC 2998, in the assay on UACC-257, in the assay on LOX IMVI and in the assay with UACC-62 was > 100 µM (inactive) in each case. For the same compound, the GI50 in the assay on OVCAR-8 and in the assay with OVCAR-4 was > 100 µM (inactive) each time.

Turning to `O=C(O)CCc1ccc2c(c1)C(=O)CC2`, the GI50 in the assay on EKVX, in the assay with NCI-H23, with NCI/ADR-RES, in the assay on MDA-N, in the assay with SN12C and in the assay on HOP-62 was > 100 µM (inactive) in each case. Further, the GI50 in the assay on SF-539, in the assay on SR, in the assay on SW-620, in the assay on K562, in the assay on SK-OV-3 and with Malme-3M was > 100 µM (inactive) in each case. In addition, the GI50 with A549, in the assay on SK-MEL-28, with HCC 2998, in the assay with UACC-257, in the assay on LOX IMVI and with UACC-62 was > 100 µM (inactive) throughout. The GI50 with OVCAR-8 and with OVCAR-4 was > 100 µM (inactive) throughout.

Turning to `O=S(=O)(c1ccccc1)c1cccc2c1NCCC2`, the GI50 in the assay on EKVX was 58.3 µM (inactive); in the assay with NCI/ADR-RES, 38.5 µM (inactive); with MDA-N, 47.2 µM (inactive); with SN12C it was 42.7 µM (inactive); in the assay on HOP-62 it was > 100 µM (inactive); in the assay on SF-539, 45 µM (inactive). In addition, the GI50 was 38.3 µM (inactive) with SR; 40.7 µM (inactive) in the assay with SW-620; 35.6 µM (inactive) in the assay with K562; > 10 µM (inactive) with SK-OV-3; 29.1 µM (inactive) in the assay on Malme-3M; 33.3 µM (inactive) in the assay with A549. Also, the GI50 in the assay with SK-MEL-28 was 36.7 µM (inactive); in the assay with HCC 2998, 13.5 µM (inactive); in the assay with UACC-257, 23.6 µM (inactive); in the assay with LOX IMVI, 35.6 µM (inactive); in the assay with UACC-62, > 10 µM (inactive); with OVCAR-8 it was 58.6 µM (inactive). In addition, the GI50 in the assay with OVCAR-4 was > 100 µM (inactive).

Consider `Cc1cc2c(c3c1c1ccccc1n3C)C(=O)C=CC2=O`, for which the GI50 was > 75.5 µM (inactive) in the assay with EKVX; 10.7 µM (inactive) in the assay with NCI-H23; 35.8 µM (inactive) with NCI/ADR-RES; 24.5 µM (inactive) in the assay on MDA-N; 27.2 µM (inactive) in the assay with SN12C; 44.1 µM (inactive) in the assay with HOP-62. The GI50 in the assay on SF-539 was 23.8 µM (inactive); in the assay with SR, 0.885 µM (active); in the assay with SW-620, 7.6 µM (inactive); with K562, 3.15 µM (inactive); in the assay on SK-OV-3 it was 55.5 µM (inactive); in the assay with Malme-3M, 28.3 µM (inactive). Also, the GI50 in the assay with A549 is 44.6 µM (inactive); in the assay with SK-MEL-28, 19.9 µM (inactive); with HCC 2998, 33 µM (inactive); with UACC-257, 18.2 µM (inactive); in the assay with LOX IMVI, 16.9 µM (inactive); in the assay on UACC-62 it was 19.6 µM (inactive). The GI50 in the assay with OVCAR-8 was 22.9 µM (inactive); in the assay with OVCAR-4, 12 µM (inactive).

With `Cc1ccc(S(=O)(=O)OC2C3OC(C)(C)OC3OC2C(c2cc(O)c3c(c2O)C(=O)c2ccccc2C3=O)c2cc(O)c3c(c2O)C(=O)c2ccccc2C3=O)cc1` (stereo not drawn), the GI50 in the assay with EKVX, in the assay on NCI-H23, in the assay on NCI/ADR-RES, in the assay with MDA-N, with SN12C and in the assay on HOP-62 was > 10 µM (inactive) in each case. The GI50 in the assay on SF-539, in the assay with SR, in the assay with SW-620, with K562, with SK-OV-3 and in the assay on Malme-3M was > 10 µM (inactive) throughout. Also, the GI50 in the assay with A549, with SK-MEL-28, with HCC 2998, in the assay with UACC-257, in the assay on LOX IMVI and in the assay with UACC-62 was > 10 µM (inactive) throughout. The GI50 with OVCAR-8 and in the assay with OVCAR-4 was > 10 µM (inactive) each time.

Turning to `O=c1cc(-c2ccccc2)oc2c(-c3cc(Cl)cc4c(=O)cc(-c5ccccc5)oc34)cc(Cl)cc12`, the GI50 is 22.2 µM (inactive) in the assay with EKVX; 25 µM (inactive) in the assay on NCI-H23; 28.8 µM (inactive) with NCI/ADR-RES; 17.3 µM (inactive) in the assay with MDA-N; 32.8 µM (inactive) in the assay with SN12C; 31 µM (inactive) with HOP-62. In addition, the GI50 was 17.8 µM (inactive) in the assay on SF-539; > 100 µM (inactive) with SR; 19.9 µM (inactive) in the assay on SW-620; 6.87 µM (inactive) in the assay on K562; 16.7 µM (inactive) in the assay on SK-OV-3; 27 µM (inactive) in the assay with Malme-3M. Also, the GI50 in the assay with A549 was 29.1 µM (inactive); in the assay with SK-MEL-28 it was 35 µM (inactive); in the assay with HCC 2998, 47.9 µM (inactive); in the assay on LOX IMVI, 11.3 µM (inactive); with UACC-62, 11.6 µM (inactive); in the assay on OVCAR-8, 28.9 µM (inactive). For the same compound, the GI50 in the assay on OVCAR-4 was 41.9 µM (inactive).

`COC(=O)c1sc(C(=O)OC)c2c1CSC2`: the GI50 in the assay on EKVX was > 100 µM (inactive); in the assay with NCI-H23, > 72.1 µM (inactive); in the assay on NCI/ADR-RES, > 100 µM (inactive); in the assay on MDA-N it was > 100 µM (inactive); with SN12C it was > 100 µM (inactive); with HOP-62 it was 47.6 µM (inactive). For the same compound, the GI50 is 53.3 µM (inactive) in the assay with SF-539; > 100 µM (inactive) in the assay on SR; > 100 µM (inactive) in the assay with SW-620; > 100 µM (inactive) with K562; > 100 µM (inactive) in the assay on SK-OV-3; > 100 µM (inactive) in the assay with Malme-3M. Besides, the GI50 is > 100 µM (inactive) with A549; > 100 µM (inactive) with SK-MEL-28; > 100 µM (inactive) in the assay on HCC 2998; > 100 µM (inactive) with UACC-257; > 94.6 µM (inactive) in the assay on LOX IMVI; > 78.7 µM (inactive) in the assay with UACC-62. Besides, the figures for the GI50 with OVCAR-8 and with OVCAR-4 were 79.6 µM (inactive) and > 100 µM (inactive), respectively.

As to `c1csc(-c2ccc(-c3cccc4nsnc34)s2)c1`, the GI50 in the assay with EKVX was > 100 µM (inactive); with NCI-H23, > 100 µM (inactive); in the assay on NCI/ADR-RES, > 100 µM (inactive); in the assay on MDA-N it was 40.4 µM (inactive); in the assay with SN12C it was > 100 µM (inactive); in the assay with HOP-62, 27.4 µM (inactive). In addition, the GI50 in the assay with SF-539 was > 100 µM (inactive); in the assay with SR, 13 µM (inactive); in the assay with SW-620, > 100 µM (inactive); with K562 it was 32 µM (inactive); in the assay on SK-OV-3 it was > 100 µM (inactive); with Malme-3M, > 100 µM (inactive). In addition, the GI50 in the assay on A549 was 62.1 µM (inactive); with SK-MEL-28, > 100 µM (inactive); in the assay with HCC 2998, > 100 µM (inactive); with UACC-257, > 100 µM (inactive); with LOX IMVI it was > 100 µM (inactive); with UACC-62 it was > 100 µM (inactive). The GI50 in the assay on OVCAR-8 is > 100 µM (inactive); in the assay on OVCAR-4 it was 21.7 µM (inactive).

In the case of `COc1ccc(/C=C/C(=O)/C=C/c2ccc(OC)cc2OC)c(OC)c1`, the GI50 is 9.08 µM (inactive) in the assay with EKVX; 10.2 µM (inactive) in the assay on NCI-H23; 8.02 µM (inactive) in the assay on NCI/ADR-RES; 2.22 µM (inactive) in the assay on MDA-N; 18.6 µM (inactive) in the assay with SN12C; 44.5 µM (inactive) in the assay on HOP-62. Besides, the GI50 in the assay with SF-539 was 15.8 µM (inactive); in the assay on SR, 3.64 µM (inactive); in the assay with SW-620, 5.32 µM (inactive); in the assay with K562 it was 2.79 µM (inactive); with SK-OV-3 it was 7.35 µM (inactive); with Malme-3M, 4.19 µM (inactive). The GI50 in the assay with A549 is 14.4 µM (inactive); with SK-MEL-28, 4.83 µM (inactive); in the assay on HCC 2998 it was 3.23 µM (inactive); with UACC-257, 1.39 µM (inactive); in the assay with LOX IMVI, 3.63 µM (inactive); in the assay on UACC-62, 5.6 µM (inactive). The GI50 was 11.6 µM (inactive) with OVCAR-8 and 12.3 µM (inactive) in the assay on OVCAR-4.
